Reference: US11098040B2, “Compounds and methods of use” (Ferro Therapeutics, Inc., priority 2018, dated 2021)

Legend:
Raji = experiment: Cell viability assay (CellTiter Glo), lymphoma cell line Raji; format: cell-based; details: Homo sapiens, 96 hours
Experimental: (§1) Cell viability assay was performed to assess the potency of the compounds in human cancer cell lines KP4 (pancreatic ductal adenocarcinoma), MiaPaCa-2 (pancreatic carcinoma), AsPC-1 (pancreatic adenocarcinoma, ascites), 143B (osteosarcoma), and SJSA-1 (osteosarcoma). Selected compounds were also assayed in a human breast epithelial cell line MCF-10A, a nontumorigenic cell line as a control to assess differential activity. Cells at a density of 500-5,000 cells/well were seeded in 96-well plates and incubated at 37° C. overnight. A series of 9 different concentrations of compound stocks (500×) were created by 3-fold serial dilution in DMSO. These compounds were further diluted in culture media and then added to cells so that the final DMSO concentration was equal to 0.25% or less. After 96 hours of incubation, 50 μL of CellTiter Glo reagent (Promega) was added to each well and luminescence was measured after 10 minutes using EnVision (PerkinElmer). Compounds titrated from top concentration of up to 30 μM. The select compounds were tested initially from 30 μM as the top concentration in duplicates (range of 4.6 nM-30 μM). […] Luminescence from cells treated with DMSO alone was set as Max and % of inhibition was calculated as follows: Inhibition %=(Max-Sample value)/Max*100. Data was analyzed using XL-fit software (ID Business Solutions Ltd.). IC50, relative IC50, or % of top inhibition was calculated.
(§2) A group of selected analogs were further profiled in cell viability assays described above in multiple additional cancer cell lines, including lung cancer, melanoma, hepatocarcinoma, pancreatic cancer, leukemia, lymphoma, ovarian cancer, breast cancer, colon cancer, and sarcoma cell lines. Initial cell seeding numbers were adjusted for each cell line. Typically, 500-5000 cells/well for adherent cells and 5000-10000/well for suspension cells were seeded in 96-well plates.

H2228 = experiment: Cell viability assay (CellTiter Glo), lung cancer cell line H2228; format: cell-based; details: Homo sapiens, NCI-H2228; lung cancer cell line, 96 hours, CellTiter Glo; read-out: IC50 H2228
Experimental: as §1, §2

SK-OV-3 = experiment: Cell viability assay (CellTiter Glo), ovarian cancer cell line SK-OV-3; format: cell-based; details: Homo sapiens, 96 hours
Experimental: as §1, §2

HCC1954 = experiment: Cell viability assay (CellTiter Glo), breast cancer cell line HCC1954; format: cell-based; details: Homo sapiens, 96 hours
Experimental: as §1, §2

MDA-MB-435S = experiment: Cell viability assay (CellTiter Glo), melanoma cell line MDA-MB-435S; format: cell-based; details: Homo sapiens, 96 hours
Experimental: as §1, §2

REC-1 = experiment: Cell viability assay (CellTiter Glo), lymphoma cell line REC-1; format: cell-based; details: Homo sapiens, Rec1, 96 hours
Experimental: as §1, §2

HT29 = experiment: Cell viability assay (CellTiter Glo), colon cancer cell line HT29; format: cell-based; details: Homo sapiens, HT-29, 96 hours
Experimental: as §1, §2

PANC1 = experiment: Cell viability assay (CellTiter Glo), pancreatic cell line PANC1; format: cell-based; details: Homo sapiens, PANC-1, 96 hours
Experimental: as §1, §2
The results of the assay in the pancreatic cell lines are given in Table 15a for PANC1, Table 15b for MiaPaCa-2, and Table 15c for AsPC-1.

MCF-10A = experiment: Cell viability assay (CellTiter Glo), non-tumorigenic breast epithelial cell line MCF-10A; format: cell-based; details: Homo sapiens, 96 hours
Method in brief: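 MCF-10A cells (500-5,000/well) treated 96 h at 37° C with 9-point 3-fold dilutions from up to 30 μM, ≤0.25% DMSO, in duplicate. Viability by CellTiter Glo luminescence; % inhibition versus DMSO-only wells gave IC50, relative IC50 or % top inhibition. Paclitaxel positive control.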

MV-4-1 = experiment: Cell viability assay (CellTiter Glo), leukemia cell line MV-4-1; format: cell-based; details: 96 hours
Experimental: as §1, §2
The results of the assay in the leukemia cell lines are given in Table 16a for MV-4-1 and Table 16b for HL-60 and Kasumi-1.

HT-1080 luc2 = experiment: Cell viability assay (CellTiter Glo), fibrosarcoma HT-1080 luc2; format: cell-based; details: Homo sapiens, fibrosarcoma expressing a luciferase gene, 96 hours, CellTiter Glo, read-out: IC50 HT-1080 luc2
Experimental: as §1, §2
(§3) The results of the assay in sarcoma cell lines are given in Table 21a for HT-1080 luc2 (fibrosarcoma expressing a luciferase gene), Table 21b for 143B (osteosarcoma), and Table 21c for SJSA-1 (osteosarcoma).

H1299 = experiment: Cell viability assay (CellTiter Glo), lung cancer cell line H1299; format: cell-based; details: Homo sapiens, NCI-H1299, 96 hours
Experimental: as §1, §2

Huh7 = experiment: Cell viability assay (CellTiter Glo), hepatocellular carcinoma Huh7; format: cell-based; details: Homo sapiens, Huh-7, 96 hours
Experimental: as §1, §2

MiaPaCa-2 = experiment: Cell viability assay (CellTiter Glo), pancreatic carcinoma MiaPaCa-2; format: cell-based; details: Homo sapiens, MIA PaCa-2; pancreatic carcinoma, 96 hours, CellTiter Glo; read-out: IC50 MiaPaCa-2
Method in brief: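 MiaPaCa-2 and AsPC-1 cells were seeded overnight at 37 °C and exposed for 96 h to 9-point, 3-fold dilutions from up to 30 μM (final DMSO ≤0.25%). CellTiter Glo luminescence was read, and inhibition was calculated relative to DMSO-only cells. IC50, relative IC50 or % top inhibition was derived.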

143B = experiment: Cell viability assay (CellTiter Glo), osteosarcoma 143B; format: cell-based; details: Homo sapiens, 96 h, osteosarcoma, 96 hours, CellTiter Glo, read-out: IC50 143B
Experimental: as §1, §3

SJSA-1 = experiment: Cell viability assay (CellTiter Glo), osteosarcoma SJSA-1; format: cell-based; details: Homo sapiens, 96 hours
Experimental: as §1, §3

in vivo = details: male, Balb/c nude, mouse, ip, 15 mg/kg
Experimental: (§4) Test compounds were dissolved either in 20% (w/w) sulfobutylether-β-cyclodextrin (SBECD) pH 3-7 aqueous solution, or 5% DMSO/(30-50%) PEG400/(65-45%) water. Test compound dosing solutions were administered intraperitoneally to Balb/c nude male mice. Blood samples were collected at various time points with EDTA-K2 as anti-coagulant on ice, and centrifuged to obtain plasma samples. The plasma samples were stored at −20° C. until analysis.
(§5) Into 10 μL of test compound plasma samples were added 2 μL DMSO then 200 μL of 5 ng/mL internal standard (VTSD) (Terfenadine) in MeOH/acetonitrile. The mixture was vortexed for 1 minute and centrifuged at 4000 rpm for 15 minutes. Calibration standards were prepared by spiking known amount of test compounds into blank plasma samples. The supernatant solution was diluted 5 times with Acetonitrile/H2O (with 0.1% formic acid, 1:1, v/v), and this is the solution for LC-MS/MS analysis. The limit of quantification (LOQ) was 1 ng/mL.
(§6) Typical HPLC mobile phases were mobile phase of 5 mM NH4OAc (with 0.05% formic acid); and mobile phase B of acetonitrile (with 0.1% formic acid). The HPLC column was Kinetex C18 (30 mm×3.00 mm). Mass spectrometer was tuned for each compound in the Multiple Reaction Monitoring (MRM) scanning mode and in the electrospray ionization mode. The lower limit of quantification was 1-10 ng.
(§7) In this study, K601 (RSL3) was formulated in 5% DMSO/30% PEG 400/65% water at 1.5 mg/mL. The volume of injection via intraperitoneal route was 10 mL/kg for a dose of 15 mg/kg. […] The limit of quantification (LOQ) was 1 ng/mL.
(§8) In this study, the compound was formulated in 20% (w/w) sulfobutylether-β-cyclodextrin (SBECD), pH 5 aqueous solution at 1.5 mg/mL. The volume of injection via intraperitoneal route was 10 mL/kg for a dose of 15 mg/kg. The concentration of test compounds in plasma were analyzed by LC-MS with the method described above. The limit of quantification was 1 ng/mL.
(§9) It was formulated in 5% DMSO/50% PEG400/45% Water pH adjusted to 4 with HCl as an aqueous solution at 1.0 mg/mL. The volume of injection via intraperitoneal route was 15 mL/kg for a dose of 15 mg/kg. The concentration of test compounds in plasma were analyzed by LC-MS with the method described above. The limit of quantification was 1 ng/mL. […] The limit of quantification was 1 ng/mL.
(§10) Compounds 24 and 28 were formulated in 20% (w/w) sulfobutylether-β-cyclodextrin (SBECD) with pH 3 and pH 4, respectively, as an aqueous solution at 1.0 mg/mL. Compound 67 was in 5% DMSO/50% PEG 400/45% water pH 4 (adjusted with 12 N HCl) aqueous solution at 1.0 mg/mL. The injection volume via intraperitoneal route was 10 mL/kg for a dose of 15 mg/kg. The concentration of test compounds in plasma were analyzed by LC-MS with the method described above. The limit of quantification was 1 ng/mL.

[1] = mouse, ip, 15 mg/kg
Experimental: as §4, §5, §6, §7, §8, §9, §10

SW480 = experiment: Cell viability assay (CellTiter Glo), colon cancer cell line SW480; format: cell-based; details: Homo sapiens, 96 hours
Experimental: as §1, §2

Row | IC50 (Raji) [nM] | IC50 (H2228) [nM] | IC50 (SK-OV-3) [nM] | IC50 (HCC1954) [nM] | IC50 (MDA-MB-435S) [nM] | IC50 (REC-1) [nM] | IC50 (HT29) [nM] | IC50 (PANC1) [nM] | IC50 (MV-4-1) [nM] | IC50 (HT-1080 luc2) [nM] | IC50 (H1299) [nM] | IC50 (Huh7) [nM] | Compound | IC50 (MCF-10A) [nM] | other results
1 | 10 | 9 | 13 | 38 | 4 | 31 | 48 | 30 | 23 | 4 | 3 | 11 | C[C@H]1Cc2c([nH]c3ccccc23)[C@H](c2ccc(C(=O)N[C@]34CC5C[C@H](C[C@H](C5)C3)C4)cc2)N1C(=O)CCl [Example 102] | 220 | –
2 | – | – | – | – | – | – | – | – | – | – | – | – | COC(=O)[C@H]1Cc2c([nH]c3ccccc23)[C@H](c2ccc(C(=O)OC(C)(C)C)cc2)N1C(=O)CCl [Example 1] | 850 | IC50 (MiaPaCa-2): 5 nM; IC50 (143B): 9 nM; IC50 (SJSA-1): 18 nM; AUC (in vivo): 123 ng·h/mL; AUC(0-inf) (in vivo): 132 ng·h/mL; AUC(0-t) (in vivo): 123 ng·h/mL; Cmax (in vivo): 126 ng/mL; MRT inf (in vivo): 1.4 h; Tmax (in vivo): 0.5 h; half-life (in vivo): 1.12 h; concentration at 0.5 h (in vivo; Calculated Concentration): 146 ng/mL; concentration at 1 h (in vivo; Calculated Concentration): 56.1 ng/mL; concentration at 4 h (in vivo; Calculated Concentration): 5.56 ng/mL; concentration at 0.5 h (in vivo; Calculated Concentration, Mean): 126 ng/mL; concentration at 1 h (in vivo; Calculated Concentration, Mean): 42.6 ng/mL; concentration at 2 h (in vivo; Calculated Concentration, Mean): 14.9 ng/mL; concentration at 4 h (in vivo; Calculated Concentration, Mean): 5.74 ng/mL; AUC Extr ([1]; male, Balb/c nude, in vivo): 7.26%; exposure (Cmax, AUC) compared with K601 (RSL3) ([1]; in vivo): higher exposure
3 | 74 | 34 | 113 | 137 | 38 | 186 | 448 | 161 | 230 | 28 | 21 | 84 | C[C@H]1Cc2c([nH]c3ccccc23)[C@H](c2ccc(N3CCOCC3)cc2)N1C(=O)CCl [Example 103] | 1370 | –
4 | 28 | 50 | 47 | 96 | 17 | 70 | 228 | 78 | 129 | 12 | 13 | 73 | COC(=O)c1ccc([C@@H]2c3[nH]c4ccc(F)cc4c3C[C@H](C(=O)OC)N2C(=O)CCl)cc1 [Example 92] | 1140 | IC50 (SW480): 533 nM
5 | 38 | 57 | 63 | 108 | 17 | 106 | 174 | 69 | 168 | 19 | 32 | 43 | C[C@H]1Cc2c([nH]c3ccccc23)[C@H](c2ccc(C3CCCC3)cc2)N1C(=O)CCl [Example 109] | 1140 | –
6 | 9 | 19 | 18 | 68 | 9 | 29 | 110 | 47 | 83 | 8 | 5 | 26 | COC(=O)c1ccc([C@@H]2c3[nH]c4ccc(Cl)cc4c3C[C@H](C(=O)OC)N2C(=O)CCl)cc1 [Example 94] | 460 | –
7 | – | – | – | – | – | – | – | – | – | – | – | – | O=C(O)c1ccc([C@H]2c3[nH]c4ccccc4c3C[C@H](C(=O)O)N2C(=O)CCl)cc1 [Example 5] | – | detection in vivo of hydrolyzed products of K601 (RSL3) [1]: detected
8 | 81 | 145 | 146 | 200 | 48 | 222 | 494 | 214 | 532 | 69 | 79 | 157 | COC(=O)c1ccc([C@H]2c3[nH]c4ccc(OC)cc4c3C[C@H](C)N2C(=O)CCl)cc1 [Example 113] | – | –
9 | 33 | 51 | 53 | 101 | 14 | 96 | 112 | 72 | 164 | 17 | 30 | 35 | C[C@H]1Cc2c([nH]c3ccccc23)[C@H](c2ccc(C3CCCCC3)cc2)N1C(=O)CCl [Example 110] | – | –
10 | 46 | 66 | 102 | 101 | 30 | 140 | 198 | 81 | 270 | 24 | 38 | 81 | C[C@H]1Cc2c([nH]c3ccccc23)[C@H](c2ccc(C3CCOCC3)cc2)N1C(=O)CCl [Example 112] | – | –
11 | 20 | 17 | 30 | 63 | 7 | 61 | 94 | 43 | 65 | 9 | 6 | 27 | CC[C@H]1Cc2c([nH]c3ccccc23)[C@H](c2ccc(C(=O)OC)cc2)N1C(=O)CCl [Example 98] | 920 | –
12 | – | – | – | – | – | – | – | – | – | – | – | – | COC(=O)[C@H]1Cc2c([nH]c3ccccc23)[C@H](c2ccc(C(=O)O)cc2)N1C(=O)CCl [Example 4] | – | detection in vivo of hydrolyzed products of K601 (RSL3) [1]: detected
13 | – | – | – | – | – | – | – | – | – | – | – | – | COC(=O)c1ccc([C@H]2c3[nH]c4ccccc4c3C[C@H](C(=O)O)N2C(=O)CCl)cc1 [Example 3] | – | detection in vivo of hydrolyzed products of K601 (RSL3) [1]: detected
14 | 75 | 163 | 114 | 613 | 36 | 191 | 403 | 169 | 174 | 39 | 38 | 72 | C[C@H]1Cc2c([nH]c3ccccc23)[C@H](c2ccc(S(=O)(=O)N[C@]34CC5C[C@H](C[C@H](C5)C3)C4)cc2)N1C(=O)CCl [Example 101] | 1070 | –

Row | Compound | IC50 (Raji) [nM] | IC50 (H2228) [nM] | IC50 (SK-OV-3) [nM] | IC50 (HCC1954) [nM] | IC50 (MDA-MB-435S) [nM] | IC50 (REC-1) [nM] | IC50 (HT29) [nM] | IC50 (PANC1) [nM] | IC50 (MV-4-1) [nM] | IC50 (HT-1080 luc2) [nM] | IC50 (H1299) [nM] | IC50 (Huh7) [nM] | IC50 (MCF-10A) [nM] | other results
15 | C[C@H]1Cc2c([nH]c3ccccc23)[C@H](c2ccc([Si](C)(C)C)cc2)N1C(=O)CCl [Example 106] | 31 | 55 | 87 | 120 | 17 | 156 | 189 | 55 | 170 | 11 | 7 | 28 | – | –
